{"source": "patent US20030153618A1", "about": "“Treatment and prevention of herpes simplex infections” (priority 1999, published 2003)", "key": {"HSV, Type II": {"system": "HSV, Type II", "assay": "Direct plaque-forming unit (PFU) count in BSC cells in defined media with set lysine (or derivative):arginine ratio", "format": "cell-based", "details": "average of three tests", "protocol": "Absorbed virons were absorbed in susceptible cells in chemically defined media and the number of plaques made were counted. (See Davis, B. D., et al., Microbiology, 2nd Ed., Harper & Row, 1973, Part V, and sources cited therein for procedural details and discussion of the plaque method.)\nThe cell line chosen was green monkey kidney cells (BSC) that have been passed greater than 41 times. […] The virons were added to a confluent lawn of BSC cells and allowed to absorb at 25° C. for one hour. The unabsorbed virons and the media were removed by washing three times in PBS. […] The control media contained a lysine/arginine ratio of 1:1. The plaques were counted when easily readable. Flasks are done in triplicate."}, "Herpes simplex II virus": {"system": "Herpes simplex II virus", "assay": "Back titration plaque assay: PFU counts at stated amounts of compound under test and arginine", "format": "cell-based, Herpes simplex II virus (BSC cells)", "protocol": "The following experiments were conducted by back titration: Herpes simplex II virus from laboratory stocks was used. BSC cells were grown to confluence in Eagles medium with 15% fetal calf serum, 150 units per milliliter of penicillin and 100 micrograms per milliliter of streptomycin. The cultures were inoculated with 500 PFU of HS II. The virons were allowed to absorb for one hour at 25° C. The tissue cultures were then washed three times with sterile PBS to remove excess media and non-absorbed virons. The cells were then incubated at 37° C. until four-plus cytopathic effects were observed. The cells were then disrupted by slow freeze-thaw two times. The suspension was then clarified by slow speed centrifugation at 4° C. The supemanant suspension was then added to confluent BSC cultures. After one hour absorption, the cells were washed with PBS twice. The cells were overlaid in defined reagent (in triplicate) Eagles media in noble agar. The cells were then incubated at 37° C. until the plaques were easily counted, usually 40 t 72 hours. the cells were then washed two times with PBS and then fixed with 10% H2CO and a 2% sodium acetate. The cells were then stained in 0.1% crystal violet in ethanol. In the tables which follow the concentration of the compound to be tested, in micrograms per milliliter, is listed across the top of the table and the concentration of arginine in micrograms per milliliter is listed down the left side of the table, the count of plaque-forming units being shown in the matrix."}}}
{"smiles": "CC(CCN)CC(N)C(=O)O", "note": "(stereo not drawn) [4-Methyl lysine]", "values": [{"measurement": "P.F.U. Count", "setting": "HSV, Type II; Compound Ratio to Arginine 10:1", "value": 541}, {"measurement": "P.F.U. Count", "setting": "HSV, Type II; Compound Ratio to Arginine 100:1", "value": 140}, {"measurement": "P.F.U. Count", "setting": "Herpes simplex II virus; compound 10 μg/ml, arginine 0 μg/ml", "value": 37}, {"measurement": "P.F.U. Count", "setting": "Herpes simplex II virus; compound 10 μg/ml, arginine 2.5 μg/ml", "value": 110}, {"measurement": "P.F.U. Count", "setting": "Herpes simplex II virus; compound 10 μg/ml, arginine 5.0 μg/ml", "value": "3.7 × 10^3"}, {"measurement": "P.F.U. Count", "setting": "Herpes simplex II virus; compound 10 μg/ml, arginine 7.5 μg/ml", "value": "7.2 × 10^4"}, {"measurement": "P.F.U. Count", "setting": "Herpes simplex II virus; compound 10 μg/ml, arginine 10 μg/ml", "value": "9.6 × 10^4"}, {"measurement": "P.F.U. Count", "setting": "Herpes simplex II virus; compound 10 μg/ml, arginine 15 μg/ml", "value": "2.3 × 10^5"}, {"measurement": "P.F.U. Count", "setting": "Herpes simplex II virus; compound 10 μg/ml, arginine 20 μg/ml", "value": "3.1 × 10^5"}, {"measurement": "P.F.U. Count", "setting": "Herpes simplex II virus; compound 10 μg/ml, arginine 25 μg/ml", "value": "3.3 × 10^5"}, {"measurement": "P.F.U. Count", "setting": "Herpes simplex II virus; compound 25 μg/ml, arginine 0 μg/ml", "value": 10}, {"measurement": "P.F.U. Count", "setting": "Herpes simplex II virus; compound 25 μg/ml, arginine 2.5 μg/ml", "value": 74}, {"measurement": "P.F.U. Count", "setting": "Herpes simplex II virus; compound 25 μg/ml, arginine 5.0 μg/ml", "value": 310}, {"measurement": "P.F.U. Count", "setting": "Herpes simplex II virus; compound 25 μg/ml, arginine 7.5 μg/ml", "value": "6.6 × 10^4"}, {"measurement": "P.F.U. Count", "setting": "Herpes simplex II virus; compound 25 μg/ml, arginine 10 μg/ml", "value": "8.7 × 10^4"}, {"measurement": "P.F.U. Count", "setting": "Herpes simplex II virus; compound 25 μg/ml, arginine 15 μg/ml", "value": "9.6 × 10^4"}, {"measurement": "P.F.U. Count", "setting": "Herpes simplex II virus; compound 25 μg/ml, arginine 20 μg/ml", "value": "3.3 × 10^5"}, {"measurement": "P.F.U. Count", "setting": "Herpes simplex II virus; compound 25 μg/ml, arginine 25 μg/ml", "value": "3.4 × 10^5"}, {"measurement": "P.F.U. Count", "setting": "Herpes simplex II virus; compound 50 μg/ml, arginine 0 μg/ml", "value": 0}, {"measurement": "P.F.U. Count", "setting": "Herpes simplex II virus; compound 50 μg/ml, arginine 2.5 μg/ml", "value": 0}, {"measurement": "P.F.U. Count", "setting": "Herpes simplex II virus; compound 50 μg/ml, arginine 5.0 μg/ml", "value": 671}, {"measurement": "P.F.U. Count", "setting": "Herpes simplex II virus; compound 50 μg/ml, arginine 7.5 μg/ml", "value": "5.0 × 10^4"}, {"measurement": "P.F.U. Count", "setting": "Herpes simplex II virus; compound 50 μg/ml, arginine 10 μg/ml", "value": "7.0 × 10^4"}, {"measurement": "P.F.U. Count", "setting": "Herpes simplex II virus; compound 50 μg/ml, arginine 15 μg/ml", "value": "7.9 × 10^4"}, {"measurement": "P.F.U. Count", "setting": "Herpes simplex II virus; compound 50 μg/ml, arginine 20 μg/ml", "value": "3.1 × 10^5"}, {"measurement": "P.F.U. Count", "setting": "Herpes simplex II virus; compound 50 μg/ml, arginine 25 μg/ml", "value": "3.6 × 10^5"}, {"measurement": "P.F.U. Count", "setting": "Herpes simplex II virus; compound 100 μg/ml, arginine 0 μg/ml", "value": 0}, {"measurement": "P.F.U. Count", "setting": "Herpes simplex II virus; compound 100 μg/ml, arginine 2.5 μg/ml", "value": 0}, {"measurement": "P.F.U. Count", "setting": "Herpes simplex II virus; compound 100 μg/ml, arginine 5.0 μg/ml", "value": 371}, {"measurement": "P.F.U. Count", "setting": "Herpes simplex II virus; compound 100 μg/ml, arginine 7.5 μg/ml", "value": "4.2 × 10^4"}, {"measurement": "P.F.U. Count", "setting": "Herpes simplex II virus; compound 100 μg/ml, arginine 10 μg/ml", "value": "4.0 × 10^7"}, {"measurement": "P.F.U. Count", "setting": "Herpes simplex II virus; compound 100 μg/ml, arginine 15 μg/ml", "value": "5.0 × 10^4"}, {"measurement": "P.F.U. Count", "setting": "Herpes simplex II virus; compound 100 μg/ml, arginine 20 μg/ml", "value": "3.6 × 10^5"}, {"measurement": "P.F.U. Count", "setting": "Herpes simplex II virus; compound 100 μg/ml, arginine 25 μg/ml", "value": "3.1 × 10^5"}, {"measurement": "P.F.U. Count", "setting": "Herpes simplex II virus; compound 200 μg/ml, arginine 0 μg/ml", "value": 0}, {"measurement": "P.F.U. Count", "setting": "Herpes simplex II virus; compound 200 μg/ml, arginine 2.5 μg/ml", "value": 0}, {"measurement": "P.F.U. Count", "setting": "Herpes simplex II virus; compound 200 μg/ml, arginine 5.0 μg/ml", "value": 191}, {"measurement": "P.F.U. Count", "setting": "Herpes simplex II virus; compound 200 μg/ml, arginine 7.5 μg/ml", "value": "1.0 × 10^4"}, {"measurement": "P.F.U. Count", "setting": "Herpes simplex II virus; compound 200 μg/ml, arginine 10 μg/ml", "value": "1.8 × 10^4"}, {"measurement": "P.F.U. Count", "setting": "Herpes simplex II virus; compound 200 μg/ml, arginine 15 μg/ml", "value": "6.8 × 10^4"}, {"measurement": "P.F.U. Count", "setting": "Herpes simplex II virus; compound 200 μg/ml, arginine 20 μg/ml", "value": "3.2 × 10^5"}, {"measurement": "P.F.U. Count", "setting": "Herpes simplex II virus; compound 200 μg/ml, arginine 25 μg/ml", "value": "3.0 × 10^5"}, {"measurement": "P.F.U. Count", "setting": "Herpes simplex II virus; compound 300 μg/ml, arginine 0 μg/ml", "value": 0}, {"measurement": "P.F.U. Count", "setting": "Herpes simplex II virus; compound 300 μg/ml, arginine 2.5 μg/ml", "value": 0}, {"measurement": "P.F.U. Count", "setting": "Herpes simplex II virus; compound 300 μg/ml, arginine 5.0 μg/ml", "value": 169}, {"measurement": "P.F.U. Count", "setting": "Herpes simplex II virus; compound 300 μg/ml, arginine 7.5 μg/ml", "value": "1.1 × 10^7"}, {"measurement": "P.F.U. Count", "setting": "Herpes simplex II virus; compound 300 μg/ml, arginine 10 μg/ml", "value": "1.9 × 10^4"}, {"measurement": "P.F.U. Count", "setting": "Herpes simplex II virus; compound 300 μg/ml, arginine 15 μg/ml", "value": "2.7 × 10^4"}, {"measurement": "P.F.U. Count", "setting": "Herpes simplex II virus; compound 300 μg/ml, arginine 20 μg/ml", "value": "3.1 × 10^5"}, {"measurement": "P.F.U. Count", "setting": "Herpes simplex II virus; compound 300 μg/ml, arginine 25 μg/ml", "value": "3.3 × 10^5"}, {"measurement": "P.F.U. Count", "setting": "Herpes simplex II virus; compound 400 μg/ml, arginine 0 μg/ml", "value": 0}, {"measurement": "P.F.U. Count", "setting": "Herpes simplex II virus; compound 400 μg/ml, arginine 2.5 μg/ml", "value": 0}, {"measurement": "P.F.U. Count", "setting": "Herpes simplex II virus; compound 400 μg/ml, arginine 5.0 μg/ml", "value": 671}, {"measurement": "P.F.U. Count", "setting": "Herpes simplex II virus; compound 400 μg/ml, arginine 7.5 μg/ml", "value": "1.9 × 10^3"}, {"measurement": "P.F.U. Count", "setting": "Herpes simplex II virus; compound 400 μg/ml, arginine 10 μg/ml", "value": "1.7 × 10^4"}, {"measurement": "P.F.U. Count", "setting": "Herpes simplex II virus; compound 400 μg/ml, arginine 15 μg/ml", "value": "2.0 × 10^4"}, {"measurement": "P.F.U. Count", "setting": "Herpes simplex II virus; compound 400 μg/ml, arginine 20 μg/ml", "value": "3.0 × 10^5"}, {"measurement": "P.F.U. Count", "setting": "Herpes simplex II virus; compound 400 μg/ml, arginine 25 μg/ml", "value": "3.3 × 10^5"}, {"measurement": "P.F.U. Count", "setting": "Herpes simplex II virus; compound 500 μg/ml, arginine 0 μg/ml", "value": 0}, {"measurement": "P.F.U. Count", "setting": "Herpes simplex II virus; compound 500 μg/ml, arginine 2.5 μg/ml", "value": 0}, {"measurement": "P.F.U. Count", "setting": "Herpes simplex II virus; compound 500 μg/ml, arginine 5.0 μg/ml", "value": 239}, {"measurement": "P.F.U. Count", "setting": "Herpes simplex II virus; compound 500 μg/ml, arginine 7.5 μg/ml", "value": "6.7 × 10^3"}, {"measurement": "P.F.U. Count", "setting": "Herpes simplex II virus; compound 500 μg/ml, arginine 10 μg/ml", "value": "1.3 × 10^4"}, {"measurement": "P.F.U. Count", "setting": "Herpes simplex II virus; compound 500 μg/ml, arginine 15 μg/ml", "value": "1.4 × 10^4"}, {"measurement": "P.F.U. Count", "setting": "Herpes simplex II virus; compound 500 μg/ml, arginine 20 μg/ml", "value": "2.4 × 10^5"}, {"measurement": "P.F.U. Count", "setting": "Herpes simplex II virus; compound 500 μg/ml, arginine 25 μg/ml", "value": "2.9 × 10^5"}]}
